{"source": "patent US20070021451A1", "about": "“Method for preventing or treating neurologic damage after spinal cord injury” (HAMAMATSU UNIVERSITY SCHOOL OF MEDICINE, priority 2005, published 2007)", "key": {"[1]": {"test_system": "Rabbit Model of Spinal Cord Ischemia", "assay": "Neurologic assessment: hind-limb motor function by modified Tarlov scale", "format": "in vivo, New Zealand White rabbits", "method": "Twenty-six male New Zealand White rabbits weighting 2.2 to 3.0 kg were used in this experiment. Spinal cord ischemia was induced by occluding the abdominal aorta with […] for 20 minutes just distal to the renal arteries. Surgical preparation was conducted according to the method described in the literature, Terada H. et. al., J. Thorac. Cardiovasc. Surg. 2001; 122: 979-85. A 24-gauge venous catheter was placed in the marginal ear vein for drug administration. The rabbits were anesthetized with intravenous sodium pentobarbital (25 mg/kg) and allowed to breathe spontaneously. Lidocaine (0.5%) was administered at the site of the skin incision as local anesthesia. The left common carotid artery was cannulated with a 24-gauge catheter for monitoring the arterial pressure. Core body temperature was continuously monitored with a rectal probe and was maintained at 38.5° C. with the aid of heating lamp. The infrarenal abdominal aorta was exposed through a transperitoneal approach. After systemic heparinization (200 U/kg), spinal cord ischemia was induced by occluding the abdominal aorta with […] for 20 minutes just distal to the renal arteries and just above the aortic bifurcation. Then, the […] released, and the flank was closed. […] The rabbits were assigned randomly to 1 of the 4 groups and subjected to the treatment of (1) above in the following manner. The sham group (n=3) underwent the same operation without aortic occlusion. The control group (n=7) received saline (1 ml) intravenously 15 minutes before aortic occlusion. NS-7 (1 mg/kg) was administered intravenously as a bolus dose 15 minutes before aortic occlusion in group A (n=8) or just after releasing the […] onset of reperfusion) in group B (n=8). Hind-limb motor function was scored 24 and 48 hours after the operation by the modified Tarlov scale."}, "[2]": {"test_system": "Rabbit Model of Spinal Cord Ischemia", "assay": "TUNEL staining of motor neurons (mid lumbar segment)", "format": "in vivo, New Zealand White rabbits", "conditions": "NS-7 15 minutes before ischemia or at the onset of reperfusion; P<0.05 vs control (FIG. 6)", "method": "Twenty-six male New Zealand White rabbits weighting 2.2 to 3.0 kg were used in this experiment. Spinal cord ischemia was induced by occluding the abdominal aorta with […] for 20 minutes just distal to the renal arteries. Surgical preparation was conducted according to the method described in the literature, Terada H. et. al., J. Thorac. Cardiovasc. Surg. 2001; 122: 979-85. A 24-gauge venous catheter was placed in the marginal ear vein for drug administration. The rabbits were anesthetized with intravenous sodium pentobarbital (25 mg/kg) and allowed to breathe spontaneously. Lidocaine (0.5%) was administered at the site of the skin incision as local anesthesia. The left common carotid artery was cannulated with a 24-gauge catheter for monitoring the arterial pressure. Core body temperature was continuously monitored with a rectal probe and was maintained at 38.5° C. with the aid of heating lamp. The infrarenal abdominal aorta was exposed through a transperitoneal approach. […] The number of motor neurons that were positive in TUNEL staining was counted in 3 sections, and the values were averaged (Sakurai M., J. Thorac. Cardiovasc. Surg. 2000; 120: 1148-57, Lang-Lazdunski L., J. Vasc. Surg. 2003; 38: 564-75). […]"}, "[3]": {"conditions": "Group A (n = 8, NS-7 1 mg/kg i.v. 15 min before aortic occlusion), 24 h after operation"}, "[4]": {"conditions": "Group A (n = 8, NS-7 1 mg/kg i.v. 15 min before aortic occlusion), 48 h after operation"}, "[5]": {"conditions": "Group B (n = 8, NS-7 1 mg/kg i.v. at onset of reperfusion), 24 h after operation"}, "[6]": {"conditions": "Group B (n = 8, NS-7 1 mg/kg i.v. at onset of reperfusion), 48 h after operation"}}, "data": [{"smiles": "Cc1cc(-c2ccc(F)cc2)cc(OCCCCCN2CCCCC2)n1.Cl", "note": "[NS-7, 4-(4-Fluorophenyl)-2-methyl-6-(5-piperidinopentyloxy)pyridine hydrochloride]", "values": [{"measurement": "Number of rabbits with Tarlov score 0", "setting": "[1]; [3]", "value": 0}, {"measurement": "Number of rabbits with Tarlov score 1", "setting": "[1]; [3]", "value": 0}, {"measurement": "Number of rabbits with Tarlov score 2", "setting": "[1]; [3]", "value": 0}, {"measurement": "Number of rabbits with Tarlov score 3", "setting": "[1]; [3]", "value": 2}, {"measurement": "Number of rabbits with Tarlov score 4", "setting": "[1]; [3]", "value": 3}, {"measurement": "Number of rabbits with Tarlov score 5", "setting": "[1]; [3]", "value": 3}, {"measurement": "Number of rabbits with Tarlov score 0", "setting": "[1]; [4]", "value": 0}, {"measurement": "Number of rabbits with Tarlov score 1", "setting": "[1]; [4]", "value": 0}, {"measurement": "Number of rabbits with Tarlov score 2", "setting": "[1]; [4]", "value": 1}, {"measurement": "Number of rabbits with Tarlov score 3", "setting": "[1]; [4]", "value": 2}, {"measurement": "Number of rabbits with Tarlov score 4", "setting": "[1]; [4]", "value": 4}, {"measurement": "Number of rabbits with Tarlov score 5", "setting": "[1]; [4]", "value": 1}, {"measurement": "Number of rabbits with Tarlov score 0", "setting": "[1]; [5]", "value": 0}, {"measurement": "Number of rabbits with Tarlov score 1", "setting": "[1]; [5]", "value": 0}, {"measurement": "Number of rabbits with Tarlov score 2", "setting": "[1]; [5]", "value": 0}, {"measurement": "Number of rabbits with Tarlov score 3", "setting": "[1]; [5]", "value": 2}, {"measurement": "Number of rabbits with Tarlov score 4", "setting": "[1]; [5]", "value": 1}, {"measurement": "Number of rabbits with Tarlov score 5", "setting": "[1]; [5]", "value": 5}, {"measurement": "Number of rabbits with Tarlov score 0", "setting": "[1]; [6]", "value": 0}, {"measurement": "Number of rabbits with Tarlov score 1", "setting": "[1]; [6]", "value": 0}, {"measurement": "Number of rabbits with Tarlov score 2", "setting": "[1]; [6]", "value": 1}, {"measurement": "Number of rabbits with Tarlov score 3", "setting": "[1]; [6]", "value": 2}, {"measurement": "Number of rabbits with Tarlov score 4", "setting": "[1]; [6]", "value": 1}, {"measurement": "Number of rabbits with Tarlov score 5", "setting": "[1]; [6]", "value": 4}, {"measurement": "Recovery of motor function in the hind limbs", "setting": "[1]; group A and B, 24 hours and 48 hours after the operation, P<0.01 vs control", "value": "remarkably enhanced"}, {"measurement": "Total number of apoptotic (TUNEL-positive) motor neurons", "setting": "[2]", "value": "strongly reduced"}]}]}
